From patent publication EP4722219A1 (Gan & Lee Pharmaceuticals Co., Ltd., priority 2023, dated 2024) come the findings set out here.

pIC50: −log10 of the molar value.

Broadly, the pIC50 is −log10 of the IC50, conventionally taken in molar units. The term IC50 denotes the concentration at which inhibition is half-maximal. A high value points to weaker potency in that assay.

The first assay deals with CRBN protein (Homo sapiens, UniProt Q96SW2). The assay can be described thus: Binding activity to E3 ubiquitin ligase CRBN (HTRF competitive binding kit, Thalidomide-Red).
Conditions: not given
The text has this:
Binding activity of the E3 ligase inhibitor disclosed in the present invention to E3 ubiquitin ligase CRBN
CRBN binding activity test kit (CEREBLON BINDING KITS (PE, 64BD CRBN PEG).
The detection is based on homogeneous time-resolved fluorescence (HTRF) technology.
This kit uses a europium-labeled GST antibody (GST Eu Cryptate Antibody) as the donor and XL665-labeled thalidomide (Thalidomide-Red reagent) as the receptor. The donor binds to the GST-tagged CRBN protein.
The donor and receptor were each diluted 50-fold using the buffer provided in the kit (PROTAC binding buffer 1). The CRBN protein was diluted 45-fold. An 8mM solution of the compound disclosed herein was diluted 10-fold using the diluent provided in the kit (1X diluent), followed by 7 successive 5-fold serial dilutions of the resulting solution.
The ratio of the acceptor and donor emission signals was calculated for each individual well.
IC50 values was calculated based on compound concentration, Ratio, and coefficient of variation using GraphPad Prism.
In general terms: In TR-FRET formats the signal depends on donor and acceptor labels being close together.
`O=C1CC[C@H](NC(=O)c2ccc3c(c2)OC[C@@H]2CNCCN32)C(=O)N1` [Compound B1]: the pIC50 is 4.40.

For the molecule `O=C1CC[C@H](NC(=O)c2ccc3c(c2F)OC[C@H]2CNCCN32)C(=O)N1` [Compound B5, (R)-N-((S)-2,6-Dioxyhesperidin-3-yl)-7-fluoro-1,2,3,4,4,4a,5-hexahydrobenzo[b]pyrazino[1,2-d][1,4]oxazine-8-carboxamide], the pIC50 is 4.22.

For the molecule `COc1cc2c(cc1C(=O)N[C@H]1CCC(=O)NC1=O)OC[C@H]1CNCCN21` [Compound B4, (R)-N-((S)-2,6-Dioxyhesperidin-3-yl)-O-9-methoxy-1,2,3,4,4a,5-hexahydrobenzo[b]pyrazino[1,2-d][1,4]oxazine-8-carboxamide], the pIC50 is 4.96.

In turn, `COc1cc2c(cc1C(=O)N[C@H]1CCC(=O)NC1=O)OC1(CCNCC1)CC2` [Compound A12, (S)-N-(2,6-dioxohesperidin-3-yl)-6-methoxyspiro[chroman-2,4'-pyridine]-7-carboxamide] showed a pIC50 of 4.69.

`O=C1CC[C@H](NC(=O)c2cc3c(cc2F)OC2(CCNCC2)CC3)C(=O)N1` [Compound A5, (S)-N-(2,6-dioxopiperidin-3-yl)-7-fluoro-spiro[2,4'-piperidine]-6-carboxamide] had a pIC50 of 4.68.

With `COc1cc2c(cc1C(=O)N[C@H]1CCC(=O)NC1=O)OCC21CCNCC1` [Compound A10, (S)-N-(2,6-dioxohesperidin-3-yl)-5-methoxy-2H-spiro[benzofuran-3,4'-piperidine]-6-carboxamide], the pIC50 was 4.61.

Still in this assay, the particulars now being: competition with XL665-labeled thalidomide for GST-tagged CRBN protein, HTRF, 3 hours at room temperature.
`CN(C(=O)c1ccc2c(c1)OC[C@H]1CNCCN21)[C@H]1CCC(=O)NC1=O` [Compound B7, (R)-N-((S)-2,6-Dioxyhesperidin-3-yl)-N-methyl-1,2,3,4,4a,5-hexahydrobenzo[b]pyrazino[1,2-d][1,4]oxazine-8-carboxamide] showed a pIC50 of 5.27.

Molecule `COc1c(C(=O)N[C@H]2CCC(=O)NC2=O)ccc2c1OCC21CCNCC1` [Compound A8, (S)-N-(2,6-dioxohesperidin-3-yl)-7-methoxy-2H-spiro[benzofuran-3,4'-piperidine]-6-carboxamide] gave a pIC50 of 4.61.

The assay is the same for the next values; noted with them: competition with XL665-labeled thalidomide for GST-tagged CRBN protein, HTRF, 3 hours at room temperature; read-out: IC50.
As for `O=C1CCC(Nc2ccc3c(c2)N2CCNC[C@@H]2CCO3)C(=O)N1` (stereo partly drawn) [Compound C11, 3-(((S)-2,3,4,4a,5,6-Hexahydro-1H-benzo[b]pyrazine[1,2-d][1,4]oxacyclopropane-10-yl)amino)piperidine-2,6-dione], the pIC50 is 4.68.

For “(R) -N-((S)-2,6-Dioxyhesperidin-3-yl)-9-methoxy-6-methyl-2,3,4,4a,5,6-hexahydro-1H-pyrazino[1,2-a]quinoline-8-carboxamide [Compound B12]”, the pIC50 was 4.43.

Take `O=C1CC[C@H](NC(=O)c2ccc3c(c2)OC[C@H]2CNCCN32)C(=O)N1` [Compound B2]: the pIC50 is 4.22.

For the molecule `Cn1c(=O)n(C2CCC(=O)NC2=O)c2ccc3c(c21)OCC31CCNCC1` (centres unmarked) [Compound D2, 3-(1-Methyl-2-oxo-1,2-dihydro-3H,7H-spiro[benzofuro[6,7-d]imidazole-6,4'-piperidine]-3-yl)piperidine-2,6-dione], the pIC50 is 7.55.

As for `O=C1CC[C@H](NC(=O)c2cc3c(cc2F)C2(CCNCC2)CO3)C(=O)N1` [Compound A4, (S)-N-(2,6-dioxopiperidin-3-yl)-5-fluoro-2H-spiro[benzofuran-3,4'-piperidine]-6-carboxamide], the pIC50 is 4.63.

Consider `O=C1CCC(n2c(=O)n3c4c(cccc42)NCC3)C(=O)N1` (centres unmarked) [Compound D3, 3-(2-oxo-5,6-dihydro-4H-imidazo[1,5,4-de]quinoxalin-1(2H)-yl)piperidine-2,6-dione], for which the pIC50 is 6.68.

`Cn1c(=O)n(C2CCC(=O)NC2=O)c2ccc3c(c21)OC[C@H]1CNCCN31` (some centres unmarked) [Compound D7]: the pIC50 is 6.40.

For `O=C1CC[C@H](NC(=O)c2cc3c(cc2F)N2CCNC[C@@H]2CO3)C(=O)N1` [Compound B3, (R)-N-((S)-2,6-dioxyhesperidin-3-yl)-9-fluoro-1,2,3,4,4,4a,5-hexahydrobenzo[b]pyrazino[1,2-d][1,4]oxazine-8-carboxamide], the pIC50 is 4.35.

As for `O=C1CC[C@H](NC(=O)c2ccc3c(c2F)OCC32CCNCC2)C(=O)N1` [Compound A1, (S)-N-(2,6-dioxopiperidin-3-yl)-7-fluoro-2H-spiro[benzofuran-3,4'-piperidine]-6-carboxamide], the pIC50 is 4.81.

With `O=C1CCC(Nc2ccc3c(c2)OCC2(CCNCC2)C3)C(=O)N1` (centres unmarked) [Compound C6, 3-(Spiro[benzopyran-3,4'-piperidine]-7-ylamino)piperidine-2,6-dione], the pIC50 was 5.47.

For the molecule `O=C1CCC(Nc2ccc3c(c2)CC2(CCNCC2)O3)C(=O)N1` (centres unmarked) [Compound C8, 3-((3H-spiro[benzofuran-2,4'-piperidine]-5-yl)amino)piperidine-2,6-dione], the pIC50 is 4.78.

Another assay has as its system LNCaP cells. The assay can be described thus: Inhibition of LNCaP cell proliferation (WST-8). The class given is cell-based. The following applies: Homo sapiens, LNCaP FGC cells, 96 hours. The method in brief:
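Cells were seeded and cultured overnight at 37 °C, 5% CO2, then exposed for 96 h to compound at 9 concentrations, 5-fold serial dilution from 10 µM final. Viability was read by WST-8 absorbance at 450 nm.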
A general note: Formazan colour is commonly taken as a measure of viable cells.
For `COc1cc(O[C@H]2C(C)(C)[C@H](NC(=O)c3ccc(N4CCC(CN5CCN6c7ccc(C(=O)N[C@H]8CCC(=O)NC8=O)cc7OC[C@H]6C5)CC4)cc3)C2(C)C)ccc1C#N` [A-P-74, (R)-3-((1-(4-(((1R,3R)-3-(4-cyano-3-methoxyphenoxy)-2,2,4,4-tetramethylcyclobutyl)carbamoyl)phenyl)piperidin-4-yl)methyl)-N-((S)-2,6-dioxopiperidin-3-yl)-1,2,3,4,4a,5-hexahydrobenzo[b]pyrazi no[1,2-d][1,4]oxazine-8-carboxamide], the IC50 stood at 0.5 µM.

A further assay has as its target T1, AR protein (Homo sapiens, UniProt P10275).
T1 construct: host or cells: VCaP
T1 sequence (P10275 1-920): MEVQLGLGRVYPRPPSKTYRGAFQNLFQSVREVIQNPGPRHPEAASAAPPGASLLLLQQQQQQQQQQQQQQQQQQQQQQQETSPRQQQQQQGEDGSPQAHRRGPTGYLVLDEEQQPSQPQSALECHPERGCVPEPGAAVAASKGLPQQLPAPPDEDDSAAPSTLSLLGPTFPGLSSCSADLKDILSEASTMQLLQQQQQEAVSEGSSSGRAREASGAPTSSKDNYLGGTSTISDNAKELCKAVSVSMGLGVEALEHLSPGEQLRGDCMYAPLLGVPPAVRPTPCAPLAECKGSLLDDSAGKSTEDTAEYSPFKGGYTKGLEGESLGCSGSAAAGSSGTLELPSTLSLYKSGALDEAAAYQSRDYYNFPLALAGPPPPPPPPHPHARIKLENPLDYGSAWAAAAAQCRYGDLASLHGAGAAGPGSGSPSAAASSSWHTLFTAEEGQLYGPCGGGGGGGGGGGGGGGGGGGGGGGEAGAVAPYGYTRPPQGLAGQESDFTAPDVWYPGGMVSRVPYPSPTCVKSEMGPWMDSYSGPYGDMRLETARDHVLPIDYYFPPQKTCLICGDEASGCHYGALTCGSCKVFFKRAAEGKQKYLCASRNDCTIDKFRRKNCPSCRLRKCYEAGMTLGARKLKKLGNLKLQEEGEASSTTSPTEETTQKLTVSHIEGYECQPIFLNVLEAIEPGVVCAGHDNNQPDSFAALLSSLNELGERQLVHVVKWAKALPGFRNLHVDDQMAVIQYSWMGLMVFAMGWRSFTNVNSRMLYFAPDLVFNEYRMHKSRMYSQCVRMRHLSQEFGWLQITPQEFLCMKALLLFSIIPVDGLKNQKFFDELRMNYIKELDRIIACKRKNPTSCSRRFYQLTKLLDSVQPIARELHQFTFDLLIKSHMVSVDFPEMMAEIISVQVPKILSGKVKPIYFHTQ
The assay can be described thus: AR protein degradation in VCaP cells (Western blot). The class given is cell-based. The following applies: 0.5 nM, 8h. As for the experimental part:
The degradation activity of the compounds disclosed in the present invention on AR protein in VCaP cells (cell source: ATCC)
The AR-positive human prostate cancer cells VCaP cultured in DMEM (GiBco catalog number 11995-065) containing 10% FBS (Hyclone catalog number SH30406.05) was inoculated in a six-well microplate (Thermo catalog number 140675) at a concentration of 3×10^5 cells/ well. After being cultured overnight in a carbon dioxide incubator (ESCO), the prepared compound of the present invention and the positive control sample ARV-766 (Annaiji) solution of different concentrations were added at a volume of 1 µL/well to make the final concentrations of the compound and the positive control sample reach 5nM and 0.5nM, respectively. At the same time, the corresponding solvent control was set and cultured for 8h. After 8h of culture, the culture medium was removed, and the cells were washed with PBS. RIPA lysis buffer containing 1% Protease Inhibitor Cocktail was added. After lysis and centrifugation, a total protein extract was obtained, and the protein concentration in the extract was detected by BCA method. Protein electrophoresis was performed using SDS-PAGE, and then the protein was transferred to a PVDF (Millipore Sigma catalog number PSRP010R5) membrane at a constant voltage of 100V for 60min. The PVDF membrane was placed in a 5% milk powder 1×TBST solution and blocked at room temperature for 1h. The primary antibody solution (Anti-Androgen receptor, Cell Signaling Technology catalog number: 5153S; 1:2000 dilution) was prepared and was incubated at 4°C overnight. The primary antibody solution was discarded and the PVDF membrane was washed with 1×TBST for 5 minutes each time, for three times. The secondary antibody solution (Thermo catalog number SA5-35571; 1:7500 dilution) was prepared and was incubated at room temperature for 1 hour. The secondary antibody solution was discarded and the PVDF membrane was washed with 1×TBST for 5 minutes each time, for three times. A dual-color infrared laser imaging system (Licor catalog number Odyssey CLX) was used for Western membrane imaging. Image Studio software was used to analyze the grayscale of the bands. GAPDH protein bands were also detected for each sample as the reference. The AR protein degradation rate of the compound and the positive control sample was calculated based on the grayscale of the protein bands.
Table 7 Degradation rate of AR protein in VCaP cells by the compounds disclosed in the present invention
(In general: In western blotting, separated proteins are transferred to a membrane and probed.)
For `COc1cc(O[C@H]2C(C)(C)[C@H](NC(=O)c3ccc(N4CCC(CN5CCN6c7ccc(C(=O)N[C@H]8CCC(=O)NC8=O)cc7OC[C@H]6C5)CC4)cc3)C2(C)C)ccc1C#N` [A-P-74, (R)-3-((1-(4-(((1R,3R)-3-(4-cyano-3-methoxyphenoxy)-2,2,4,4-tetramethylcyclobutyl)carbamoyl)phenyl)piperidin-4-yl)methyl)-N-((S)-2,6-dioxopiperidin-3-yl)-1,2,3,4,4a,5-hexahydrobenzo[b]pyrazi no[1,2-d][1,4]oxazine-8-carboxamide], the “Degradation rate of AR protein in VCaP cells” value worked out at 2%.

Staying with this assay, now noted: 5 nM, 8h.
Turning to `COc1cc(O[C@H]2C(C)(C)[C@H](NC(=O)c3ccc(N4CCC(CN5CCN6c7ccc(C(=O)N[C@H]8CCC(=O)NC8=O)cc7OC[C@H]6C5)CC4)cc3)C2(C)C)ccc1C#N` [A-P-74, (R)-3-((1-(4-(((1R,3R)-3-(4-cyano-3-methoxyphenoxy)-2,2,4,4-tetramethylcyclobutyl)carbamoyl)phenyl)piperidin-4-yl)methyl)-N-((S)-2,6-dioxopiperidin-3-yl)-1,2,3,4,4a,5-hexahydrobenzo[b]pyrazi no[1,2-d][1,4]oxazine-8-carboxamide], the “Degradation rate of AR protein in VCaP cells” value is listed as 70%.

The subject of the next assay is VCaP cells. Kind of assay: Inhibition of VCaP cell proliferation (WST-8). Format: cell-based. The following applies: Homo sapiens, 168 hours. The protocol:
On the first day of the experiment, VCaP cells were seeded at a density of 15,000 cells/well in a 96-well plate using DMEM medium containing 10% fetal bovine serum, with 100µL of cell suspension per well, and cultured overnight in a cell incubator at 37°C and 5% CO2. On the second day, 100µL of the compound of the present invention and the positive control ARV-110 (source: Anaiji) prepared in culture medium at different concentrations were added to each well. The final concentration of the compound was 9 concentration points of 5-fold serial dilution starting from 10 µM. […] On the ninth day, the 96-well cell culture plate was removed and 1/10 volume of WST-8 (Beytime, C0040) reagent was added to each well. The absorbance at 450nm was measured using a microplate reader (TECAN, F50).
Turning to `COc1cc(O[C@H]2C(C)(C)[C@H](NC(=O)c3ccc(N4CCC(CN5CCN6c7ccc(C(=O)N[C@H]8CCC(=O)NC8=O)cc7OC[C@H]6C5)CC4)cc3)C2(C)C)ccc1C#N` [A-P-74, (R)-3-((1-(4-(((1R,3R)-3-(4-cyano-3-methoxyphenoxy)-2,2,4,4-tetramethylcyclobutyl)carbamoyl)phenyl)piperidin-4-yl)methyl)-N-((S)-2,6-dioxopiperidin-3-yl)-1,2,3,4,4a,5-hexahydrobenzo[b]pyrazi no[1,2-d][1,4]oxazine-8-carboxamide], the IC50 came out at 2.16 µM.
